Reference: patent publication US20100063009A1, “Pharmaceutical Combination Comprising 6-Dimethylaminomethyl-1-(3-methoxy-phenyl)-cyclohexane-1.3-diol and an NSAID” (GRUENENTHAL GmbH, priority 2008, published 2010)
Several values for one entry are separate records, joined by “and”; a condition that tells them apart may be missing. Equal entries are not always repeated. Structures can show the parent of a compound that is named as a salt. Where two headings read alike, the source gives them in different places.

System: inflamed rat hind paw
Test: Randall-Selitto test in rats (carrageenan-induced inflammatory pain, mechanical nociceptive threshold)
Format: in vivo
Conditions: for ED50: Rattus norvegicus; for timepoint of peak effect: substance applied alone, A i.v., NSAIDs i.p.
Procedure: The weight ratios of the components (a) and (b) that will lead to a supra-additive effect (synergistic effect) of the inventive pharmaceutical composition may be determined via the test of Randall and Selitto as described in Arch. Int. Pharmacodyn., 1957, 111: 409 to 419, which is a model for inflammatory pain. The respective part of the literature is hereby incorporated by reference and forms part of the present disclosure.
Acute inflammation is induced by an intraplantar injection of 0.1 ml of a carrageenan solution (0.5% in distilled water) into one hind paw. The mechanical nociceptive threshold is measured 4 hours after carrageenan injection using an Algesiometer (Ugo Basile, Italy). The device generates a mechanical force with a linear increase over time. The force is applied to the dorsal surface of the inflamed rat hind paw via a cone-shaped stylus with a rounded tip (2 mm tip diameter). The nociceptive threshold is defined as the force (in grams) at which the rat vocalises (cut-off force 250 g). The mechanical nociceptive threshold is measured at different timepoints after the drug or vehicle administration. The antinociceptive and antihyperalgesic activity of the tested substance is expressed as percentages of the maximal possible effect (% MPE). The group size is n=10.
The interactions studies presented herein were performed using equieffective doses of the two components, calculated from the ratio of the respective ED50 values of the components if administered alone.
The route of administration was intravenous (i.v.) for (1RS,3RS,6RS)-6-dimethylaminomethyl-1-(3-methoxy-phenyl)-cyclohexane-1,3-diol hydrochloride (A) and intraperitoneal (i.p.) for the NSAIDs diclofenac, ibuprofen, metamizol-sodium and naproxen. […] (diclofenac, ibuprofen) and 45 min p. appl. (naproxen, metamizol-sodium).

[1] = ip, measured at peak effect 30 min (diclofenac, ibuprofen) or 45 min (naproxen, metamizol-sodium) p. appl., n=10, read-out: ED50 of the NSAID applied alone

Structure (SMILES) | ED50 (iv, measured at peak effect 15 min p. appl., 4 h after carrageenan, % MPE, n=10, 95% range in brackets, read-out: ED50 of A applied alone) | ED50 of A applied alone (i.v., measured at peak effect 15 min p. appl., 4 h after carrageenan, % MPE, n=10, 95% range in brackets, hydrochloride) | timepoint of peak effect | ED50 [1] | ED50 of the NSAID applied alone (i.p., measured at peak effect 30 min (diclofenac, ibuprofen) or 45 min (naproxen, metamizol-sodium) p. appl., n=10)
COc1cccc([C@@]2(O)C[C@H](O)CC[C@@H]2CN(C)C)c1 (racemic) [A, (1RS,3RS,6RS)-6-dimethylaminomethyl-1-(3-methoxy-phenyl)-cyclohexane-1,3-diol hydrochloride] | 15.8 mg/kg | 14.5 (13.3-15.6) mg/kg and 14.1 (13.2-15.1) mg/kg | 15 min p. appl. |  | 
O=C(O)Cc1ccccc1Nc1c(Cl)cccc1Cl [Diclofenac, diclofenac] |  |  | 30 min p. appl. | 146 mg/kg | 
CC(C)Cc1ccc(C(C)C(=O)O)cc1 (centres unmarked) [Ibuprofen] |  |  | 30 min p. appl. | 139 mg/kg | 
Cc1c(N(C)CS(=O)(=O)[O-])c(=O)n(-c2ccccc2)n1C.[Na+] [Metamizol-Sodium, metamizol-sodium] |  |  | 45 min p. appl. |  | 88.1 (77.5-98.3) mg/kg
COc1ccc2cc([C@H](C)C(=O)O)ccc2c1 [Naproxen, naproxen] |  |  | 45 min p. appl. | 164 mg/kg | 
